Source: US20070092444A1, “Inhibition of inward sodium currents in cancer” (priority 2003, published 2007)

Experiments:
[1] = tested on: SKMG, U373, and U251 glioma cell lines; assay: MTT Cell Proliferation Assay, three GBM cell lines; format: cell-based, human; settings: drug concentrations between 10-100 μM
Protocol: Cells were plated in 96-well plates at 1000, 4000, and 2000 cells/well for SK-MG, U373, and U251 cells, respectively. Drug was added at specified concentration on day 3 after plating (at the beginning of log phase of growth).
(§1) If the Na^+ conductance seen in high-grade glioma cells was required or linked to the high rate of cell growth, inhibition of the pathway should result in inhibition of cell growth and/or cell death. […] However, benzamil is ineffective in inhibiting Na^+/H^+ exchange in glial cells (73), yet still can inhibit proliferation in this assay. […] Therefore, inhibition of the inward Na^+ current results in inhibition and/or stoppage of cell growth. These observations establish the importance of this pathway in tumor cell biology.

U87-MG cells = assay: Transwell Migration Assay, U87-MG cells; format: cell-based, human; settings: concentration-dependent
U87-MG and SK-MG cells = assay: [^3H]-thymidine incorporation; format: cell-based, human; settings: same concentration range (10-100 μM)
From the text: as §1

[2] = Activity of tyrosine-extended PcTX1 compared with unmodified PcTX1
ASIC1+ASIC2+γ-hENaC = target: T1, ASIC1+ASIC2+γ-hENaC (Homo sapiens, UniProt P51170+P78348+Q16515); assay: ASIC1+ASIC2+γ-hENaC in planar lipid bilayers; format: biochemical; settings: 25 μM, cis bathing solution; γ-hENaC co-expressed with ASIC1/2
T1 construct: made in house; host or cells: Xenopus oocytes (membrane vesicles)
T1 sequence (Q16515 whole entry): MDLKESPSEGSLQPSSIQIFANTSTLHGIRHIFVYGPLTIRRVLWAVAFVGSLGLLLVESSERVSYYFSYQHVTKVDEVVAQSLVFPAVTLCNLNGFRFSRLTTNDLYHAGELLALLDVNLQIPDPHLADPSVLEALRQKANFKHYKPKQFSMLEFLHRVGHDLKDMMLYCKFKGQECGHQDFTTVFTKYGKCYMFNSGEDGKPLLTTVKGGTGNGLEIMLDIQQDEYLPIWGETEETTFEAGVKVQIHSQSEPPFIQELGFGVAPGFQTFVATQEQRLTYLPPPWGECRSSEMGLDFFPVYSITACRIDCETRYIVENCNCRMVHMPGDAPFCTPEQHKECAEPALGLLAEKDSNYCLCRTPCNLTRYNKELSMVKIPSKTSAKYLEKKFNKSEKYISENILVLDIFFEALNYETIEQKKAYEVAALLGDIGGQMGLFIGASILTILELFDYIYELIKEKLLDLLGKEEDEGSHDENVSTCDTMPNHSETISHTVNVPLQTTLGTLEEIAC
T1 sequence (P78348 whole entry): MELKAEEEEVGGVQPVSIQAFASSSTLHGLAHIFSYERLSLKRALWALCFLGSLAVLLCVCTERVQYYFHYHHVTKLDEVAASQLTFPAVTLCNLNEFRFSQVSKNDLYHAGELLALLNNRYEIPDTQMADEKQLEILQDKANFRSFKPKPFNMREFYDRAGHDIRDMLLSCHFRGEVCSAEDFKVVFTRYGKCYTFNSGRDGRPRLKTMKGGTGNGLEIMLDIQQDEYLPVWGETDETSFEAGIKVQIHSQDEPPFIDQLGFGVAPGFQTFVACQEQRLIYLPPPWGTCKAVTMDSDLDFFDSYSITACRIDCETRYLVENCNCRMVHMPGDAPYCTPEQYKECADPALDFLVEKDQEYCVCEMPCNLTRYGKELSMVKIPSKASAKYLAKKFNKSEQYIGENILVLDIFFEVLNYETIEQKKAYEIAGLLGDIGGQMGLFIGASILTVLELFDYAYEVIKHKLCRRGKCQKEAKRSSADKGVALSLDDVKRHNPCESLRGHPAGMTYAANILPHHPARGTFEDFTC
T1 sequence (P51170 whole entry): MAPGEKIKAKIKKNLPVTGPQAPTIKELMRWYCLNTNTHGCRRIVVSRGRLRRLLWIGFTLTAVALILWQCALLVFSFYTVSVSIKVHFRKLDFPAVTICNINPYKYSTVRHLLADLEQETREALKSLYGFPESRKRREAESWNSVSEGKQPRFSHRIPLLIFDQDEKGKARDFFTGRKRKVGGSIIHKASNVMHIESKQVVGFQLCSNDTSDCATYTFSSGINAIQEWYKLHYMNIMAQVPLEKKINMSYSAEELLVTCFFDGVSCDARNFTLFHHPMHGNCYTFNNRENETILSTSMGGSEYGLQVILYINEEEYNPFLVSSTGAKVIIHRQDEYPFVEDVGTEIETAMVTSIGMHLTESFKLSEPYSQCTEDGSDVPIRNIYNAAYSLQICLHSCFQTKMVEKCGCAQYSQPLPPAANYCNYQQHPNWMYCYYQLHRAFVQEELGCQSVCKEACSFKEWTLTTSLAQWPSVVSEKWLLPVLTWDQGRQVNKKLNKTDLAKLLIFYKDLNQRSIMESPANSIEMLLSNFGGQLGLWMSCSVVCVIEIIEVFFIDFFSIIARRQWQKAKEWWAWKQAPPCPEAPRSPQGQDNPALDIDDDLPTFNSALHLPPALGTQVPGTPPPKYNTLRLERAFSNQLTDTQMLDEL
Protocol: FIGS. 14A and B show the effect of syntaxin 1A on ASIC1+ASIC2 (FIG. 14A) and ASIC1+ASIC2+γ-hENaC (FIG. 14B) in planar lipid bilayers. The holding potential was +100 mV and records were filtered at 200 Hz.
The effect of syntaxin 1A on constitutive amiloride-sensitive inward Na^+ current activity in planar lipid bilayers was examined (FIGS. 14A and B). For these experiments, membrane vesicles were prepared from oocytes that were previously injected with cRNA encoding both ASIC1 and ASIC2±γ-hENaC. […] Syntaxin 1A was then added as a GST fusion protein to the cis (or cytoplasmic) bathing solution. […] The same results were found in oocyte expression studies (FIG. 15).

Molecule: NC(=Nc1ccccc1)NC(=O)c1nc(Cl)c(N)nc1N [phenamil]
- relative rate of proliferation [1]: significantly inhibited

Molecule: N=C(N)NC(=O)c1ncc(N)nc1N [N-amidino-3,5-diamino-pyrazinecarboxamide]
- Transwell migration (U87-MG cells): did not
- [^3H]-thymidine incorporation (U87-MG and SK-MG cells): did not affect

Molecule: SEQ ID NO. 2: PcTX1 with a tyrosine residue or other residue at one end to aid linking to the tag protein (EDCIPKWKGCVNRHGDCCEGLECWKRRRSFEVCVPKTPKTY; listed as Psalmopoeus cambridgei)
- activity relative to unmodified PcTX1 [2]: identical to the unmodified PcTX1 sequence

B1: syntaxin 3: syntaxin family member used as specificity control (protein, UniProt Q13277 1-289, looked up)
Syntaxin-3: MKDRLEQLKAKQLTQDDDTDAVEIAIDNTAFMDEFFSEIEETRLNIDKISEHVEEAKKLYSIILSAPIPEPKTKDDLEQLTTEIKKRANNVRNKLKSMEKHIEEDEVRSSADLRIRKSQHSVLSRKFVEVMTKYNEAQVDFRERSKGRIQRQLEITGKKTTDEELEEMLESGNPAIFTSGIIDSQISKQALSEIEGRHKDIVRLESSIKELHDMFMDIAMLVENQGEMLDNIELNVMHTVDHVEKARDETKKAVKYQSQARKKLIIIIVLVVVLLGILALIIGLSVGLN
- inhibition of channel Po (ASIC1+ASIC2+γ-hENaC): without effect
